Where two headings read alike, the source gives them in different places.
What was measured:
[1] = tested on: human dermal fibroblast (HDF) primary cells; test: H2O2-resistance in primary human dermal fibroblasts; type: cell-based; conditions: YES/NO
NRF2 [2] = test: qPCR analysis of NRF2-regulated genes; type: cell-based, human; conditions: Homo sapiens, 24 h, Assay 12(o), at 10 uM, qPCR
Experimental: (§1) For qPCR analysis, WI-38 cells were treated with small molecules (at 10 μM) (biological quadruplicates) for 24 hrs and processed for RNA isolation and reverse transcription (RT) with the Cells-to-Ct Kit (Life Technologies), following manufacturer's instructions. RT products were diluted with H2O and used for qPCR analysis on an ABI 7300 system (Life Technologies) (technical triplicates). Relative expression levels of target genes were normalized to the genes B2M, PPIA and GAPDH. To knock down the expression of FOXO3 or NRF2, WI-38 cells were transfected, using the RNAiMAX reagents (Life Technologies), with siRNA oligos (at 10 nM final concentration, 10 ml culture medium) for FOXO3 (Life Technologies) or NRF2 (Integrated DNA Technologies) on 10-cm petri dishes for 36 hrs, and then detached and aliquoted onto 96-well (for qPCR analysis) or 384-well plates (for H2O2-stress treatment). ˜24 hrs later, small molecules were introduced and incubated with cells for 24 hrs. Cells were then either processed with the Cells-to-Ct Kit to prepare RT products for qPCR analysis or subjected to H2O2 (700 μM) for 3 hrs and assayed for viability. The knockdown efficiency of FOXO3 or NRF2 was checked at 36 hrs post-transfection and at the end as well.
(§2) For qPCR analysis, WI-38 cells were treated with small molecules (at 10 μM) (biological quadruplicate) for 24 hrs and processed for RNA isolation and reverse transcription (RT) with the Cells-to-Ct Kit (Life Technologies), following manufacturer's instructions. RT products were diluted with H2O and used for qPCR analysis on a LightCycler 480 system (Roche) (technical triplicates). Relative expression levels of target genes were normalized to the genes B2M, PPIA and GAPDH. To knock down the expression of FOXO3 or NRF2, WI-38 cells were transfected with siRNA oligos (at 10 nM final concentration) for FOXO3 (Life Technologies) or NRF2 on 10-cm petri dish for 36 hrs, and then detached and aliquoted onto 96-well plates. ˜24 hrs later, small molecules were introduced and incubated with cells for 24 hrs. Cells were then processed with the Cells-to-Ct Kit to prepare RT products for qPCR analysis. The knockdown efficiency of FOXO3 or NRF2 was checked at 36 hrs post-transfection and at the end as well.
NRF2/SKN-1, the oxidative stress and xenobiotic phase 2 detoxification protein, can extend animal lifespan (Sykiotis and Bohmann, 2008; Tullet et al., 2008). Applicants analyzed these small molecules for their ability to increase the expression of NRF2-regulated genes, including HMOX1 (heme oxygenase (decycling) 1; anti-oxidant), NQO1 (NAD(P)H dehydrogenase, quinone 1; phase 2 detoxification enzyme), GCLC (glutamate-cysteine ligase, catalytic) and GSTM1 (glutathionine S transferase) (Hur and Gray, 2011; Suzuki et al., 2013).

C. elegans = C. elegans lifespan assays (liquid and plate); type: in vivo, Caenorhabditis elegans; conditions: Caenorhabditis elegans, at 66 uM
WI-38 cells [3] = conditions: Assay 8(k); without H2O2, at 10 uM
Experimental: WI-38 cells were seeded on 384-well plates for 24 hrs and then incubated with small molecules for 24 hrs. […] Images were collected on an INCell Analyzer 2000 (GE) and analyzed with the Developer software.

WI-38 cells [4] = conditions: for EC50: read-out: Est. ED50; for Assay 1: H2O2-resistant: YES/NO, if NO, possibly due to repeated freezing/thawing of stocks
WI-38 cells [5] = test: CdCl2 (cadmium) resistance assay; type: cell-based, human; conditions: YES/NO; for Assay 2: Cadmium-resistant: * indicates partial
Experimental: (§3) For many stress conditions tested previously, one significant correlation to longevity is the cellular resistance to H2O2 or CdCl2. Applicants then tested these small molecules, at five different final concentrations (0.25 μM to 20 μM), for cadmium and MMS resistance in WI-38 cells.
(§4) The setups on 384-well plates and incubation times were the same as for H2O2 until the time of incubation with the stressors, which was 12 hours for both cadmium and MMS assays. Applicants tested several conditions, including conditions used to assay fibroblasts from long-lived animals (Salmon et al., 2005). These conditions produced better results with the positive controls (KEAP1 and AKT1 siRNAs) in the MMS assay. Thus, for MMS, the cells were shifted from growth media—OptiMEM+10% FBS, to DMEM (Gibco)+2% BSA (no serum) just before adding small molecules, which occurred 24 hours before MMS addition.
(§5) Isolated small molecules were tested for MMS and cadmium resistance twice in two independent assays. Each small molecule was analyzed at five different concentrations (0.25 μM to 20 μM final concentration), with technical triplicates for each dose. Data were analyzed using a global variance t-test.

WI-38 cells [6] = test: MMS resistance assay; type: cell-based, human; conditions: YES/NO; for Assay 3: MMS-resistant: * indicates partial; for Assay 5: Triple resistant: H2O2, cadmium and MMS
Experimental: as §3, §4, §5

NRF2 [7] = test: in vitro; type: cell-based, human; conditions: 10 uM; YES/NO
Experimental: as §1, §2
Of these, O15 and O20 consistently (in 3 of 3 experiments) required NRF2 to promote H2O2-resistance, and their resistance capacities were reduced by ˜90% on average upon NRF2 knockdown under conditions tested.

FOXO3 = test: qPCR analysis of FOXO3-regulated genes; type: cell-based, human; conditions: Homo sapiens, 24 h, Assay 10(m), at 10 uM, qPCR
Experimental: as §1, §2
Many perturbations that increase lifespan and stress resistance in animals do so in a FOXO-dependent fashion (Kenyon, 2010c). Humans have several FOXO genes, but FOXO3, which promotes stress resistance in mammalian cell culture (Kops et al., 2002; Nemoto and Finkel, 2002; Tran et al., 2003), is the one that has been linked to exceptional longevity in humans (Anselmi et al., 2009; Flachsbart et al., 2009; Li et al., 2009; Pawlikowska et al., 2009; Soerensen et al., 2010; Willcox et al., 2008). FOXO1, in contrast, appears to be responsible for some symptoms of diabetes in mouse models (Cheng and White, 2011). For this reason, applicants have focused on analyzing potential ability of our small molecules to activate FOXO3. […] Another 4 molecules (Gr-7A, Gr-7C, O12 and O23) could induce robust expression (greater than 1.5-fold) of at least 2 FOXO3 target genes.

mTOR = mTOR inhibition (RPS6 phosphorylation status), In-Cell Western; type: cell-based, human
Experimental: In-Cell Western assays were performed, following a standard immuno-staining protocol. Briefly, WI-38 cells were treated with small molecules for 24 hrs, and then processed and incubated with primary antibody cocktail (Cell Signaling, mouse anti-RPS, 1:25; rabbit-anti-pRPS6-(Ser-235/236), 1:100) overnight at 4° C. Next day, samples were processed and incubated with fluorophore-conjugated secondary antibodies (Cell Signaling, DyLight 680-goat anti-mouse, 1:500; DyLight 800-goat anti-rabbit, 1:1,000). Images were collected on an Odyssey Imager (LI-COR) and analyzed with the Image Studio Lite software (version 5.0.21).
Mammalian target of rapamycin (mTOR) is a crucial regulator of cell growth and metabolism and has been implicated in aging and many diseases, including cancer, diabetes and neurological diseases (Dazert and Hall, 2011; Zoncu et al., 2011). […] In addition, the anti-diabetes drug metformin (Kalender et al., 2010), as well as other AMPK activators such as 2-deoxy-D-glucose (Inoki et al., 2003) and AICAR (Shaw et al., 2004), could inhibit mTORC1. Applicants examined the effects of our molecules (at three doses, 5 μM, 10 μM and 20 μM) on the phosphorylation status of ribosomal protein S6 (RPS6), a readout of mTOR activity, to ask whether they could inhibit mTOR.
In-Cell Western assays were performed, following the same procedures to analyze DNA-damage markers. WI-38 cells were incubated with small molecules for 24 hrs, and then processed and incubated with primary antibody cocktail (mouse anti-RPS, 1:25; rabbit-anti-pRPS6, 1:100) overnight at 4° C. Next day, samples were processed and incubated with fluorophore-conjugated secondary antibodies (goat anti-mouse, 1:500; goat anti-rabbit, 1:1,000) in antibody dilution buffer. Images were collected on an Odyssey Imager (LI-COR) and analyzed with the Image Studio Lite software.

[8] = read-out: Induction of NRF2-regulated genes: HMOX1 normalized fold-change
[9] = read-out: Induction of NRF2-regulated genes: NQO1 normalized fold-change
[10] = Assay 2(z), 1.0 × 10^9 bacteria/ml, wild type + FuDR (2012 July), read-out: Lifespan assay in liquid
[11] = Assay 3(aa), 2.5 × 10^9 bacteria/ml, wild type + FuDR, read-out: Lifespan assay in liquid
[12] = Assay 4(ab), 2.0 × 10^10 bacteria/ml, CF512 worms, no FuDR, read-out: Lifespan assay on plates
[13] = dose response 0.6-20 μM, H2O2-resistance
[14] = read-out: Induction of FOXO3-regulated genes: SOD2 normalized fold-change

SMILES	Assay 6: H2O2-resistant, at 10 uM, human dermal fibroblast (HDF) primary cells [1]	fold induction at 10 µM (NRF2 [2]; [8])	fold induction at 10 µM (NRF2 [2]; [9])	ILS at 66 µM (C. elegans; [10]) [%]	ILS at 66 µM (C. elegans; [11]) [%]	ILS at 66 µM (C. elegans; [12]) [%]	PI cell-death imaging without H2O2 (indicating potential toxicity) (WI-38 cells [3])	EC50 (WI-38 cells [4]; [13]) [µM]	Assay 4: H2O2- & Cd-resistant (WI-38 cells [5])	Assay 2: Cadmium-resistant (WI-38 cells [5])	Assay 3: MMS-resistant (WI-38 cells [6])	Assay 5: Triple resistant (WI-38 cells [6])	Assay 1: H2O2-resistant (WI-38 cells [4])	fold induction at 10 µM (FOXO3; [14])	also measured
Cc1ccc(S(=O)(=O)/C(C#N)=C/c2c(Oc3ccc(Cl)c(C)c3)nc3ccccn3c2=O)cc1 [Gr-5C]	YES	1.67	1.49	32.6	1.6	-6.9	YES	15.7							
Oc1nc2ccccc2n2cccc12 [O4]	YES								YES	YES	YES	YES	YES		Assay 17: NRF2-dependency for H2O2-resistance (NRF2 [7]): YES; EC50 (WI-38 cells [4]): 11.2 µM
CO/C(O)=C1\C(C)=NC2=C(C(=O)CC(c3cccs3)C2)C1c1ccc(F)c(F)c1 (stereo not drawn) [O5]	YES	2.15		48.9	18.9	46.2	YES	20	YES	YES	YES	YES	YES	0.77	fold induction at 10 µM (FOXO3; read-out: Induction of FOXO3-regulated genes: GADD45A normalized fold-change): 0.45; ILS at 66 µM (C. elegans; Assay 5(ac), 1.0 × 10^11 bacteria/ml, CF512 worms, no FuDR, read-out: Lifespan assay on plates): 46.3%; ILS at 66 µM (C. elegans; Assay 6(ad), 2.0 × 10^10 bacteria/ml, CF512 worms, no FuDR, read-out: Lifespan assay on plates): 10.2%; ILS at 66 µM (C. elegans; Assay 7(ae), 1.0 × 10^11 bacteria/ml, CF512 worms, no FuDR, read-out: Lifespan assay on plates): 32%
Oc1nc(-c2ccccn2)nc2c1Cc1cc(F)ccc1O2 [O24]	YES	9.55	1.48	13	2.3			7.5	YES	YES	YES	YES	YES	1.2	fold induction at 10 µM (FOXO3; read-out: Induction of FOXO3-regulated genes: SESN1 normalized fold-change): 1.93; fold induction at 10 µM (FOXO3; read-out: Induction of FOXO3-regulated genes: TXNIP normalized fold-change): 0.61; fold induction at 10 µM (NRF2 [2]; read-out: Induction of NRF2-regulated genes: GCLC normalized fold-change): 0.7; fold induction at 10 µM (NRF2 [2]; read-out: Induction of NRF2-regulated genes: GSTM1 normalized fold-change): 1.24
CO[C@H]1C[C@@H]2CC[C@@H](C)[C@@](O)(O2)C(=O)C(=O)N2CCCC[C@H]2C(=O)O[C@H]([C@H](C)C[C@@H]2CC[C@@H](O)[C@H](OC)C2)CC(=O)[C@H](C)/C=C(\C)[C@@H](O)[C@@H](OC)C(=O)[C@H](C)C[C@H](C)/C=C/C=C/C=C/1C [rapamycin, reference compound]															Reduction of ratio of pRPS6/RPS6 by rapamycin (mTOR): ≥ 90%; Reduction of phosphorylated form of RPS6 by rapamycin (normalized) (mTOR; control): 95%

Reference: patent US11413278B2, “Compounds and methods for promoting stress resistance” (priority 2015, dated 2022)
